In patent publication US20260028330A1, “HETEROARYL CARBOXAMIDE AND RELATED GPR84 ANTAGONISTS AND USES THEREOF” (LIMINAL BIOSCIENCES LIMITED, priority 2022, published 2026):

Assays:
[1] = tested on: dextran sodium sulfate-induced chronic inflammatory bowel disease model; details: once-daily doses of 3 and 10 mg/kg; mouse; cited from earlier work
human GPR84 receptor = biological target: T1, human GPR84 receptor (Homo sapiens, UniProt Q9NQS5); assay: Gαi biosensor BRET assay in transfected HEK293 cells (antagonism of GPR84 agonist ZQ-16); type: cell-based; details: 200 nmol/L ZQ-16; for inhibition at 10 µM: code F = 10 μM; for inhibition at 2 µM: code A = 2 μM
T1 construct: host or cells: HEK293 cells, transient transfection
T1 sequence (Q9NQS5 whole entry): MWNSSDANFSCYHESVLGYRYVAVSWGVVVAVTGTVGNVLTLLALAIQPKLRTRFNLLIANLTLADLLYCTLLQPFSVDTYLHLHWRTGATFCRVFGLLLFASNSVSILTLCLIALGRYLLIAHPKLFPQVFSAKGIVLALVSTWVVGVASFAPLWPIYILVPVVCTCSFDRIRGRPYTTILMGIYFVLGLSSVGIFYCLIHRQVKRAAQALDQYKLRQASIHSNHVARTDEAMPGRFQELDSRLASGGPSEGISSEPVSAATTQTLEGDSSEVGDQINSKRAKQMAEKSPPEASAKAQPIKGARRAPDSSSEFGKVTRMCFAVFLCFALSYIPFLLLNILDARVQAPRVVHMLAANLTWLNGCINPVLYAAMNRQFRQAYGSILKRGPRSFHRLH
Source text: Background—The following assays can be used for determination of GPR84 activation in living HEK293 cells. The Gαi BRET biosensor (Gagnon et al., 2018; Gales et al., 2006. Nat Struct Mol Biol. 13, 778-86; Saulieres et al., 2012. Nat Chem Biol. 8, 622-30) allows to directly monitor GPR84-mediated activation of Gαi. The Gαi biosensor consists of a Rluc8-tagged Gαi2 subunit, a GFP10-tagged Gγ2 subunit, and an untagged Gβ1. Agonist stimulation and GPR84 activation triggers a physical separation between the RLuc8-Gαi donor and the GFP10-Gγ2 acceptor, resulting in a decrease in BRET signal whose amplitude is correlated to ligand efficacy (Gales et al., 2006). Moreover, signaling functions of GPCRs are tightly regulated by endocytosis, the targeting of receptors to endosomes and their sorting to lysosomes or recycling to the plasma membrane. The early endosomes (EEs) trafficking assay (Namkung et al., 2016. Nat Commun. 7, 12178) uses Rluc8-tagged GPR84 and Renilla GFP (rGFP) attached to the FYVE domain from human endofin/zinc finger FYVE domain-containing protein 16, which binds phosphatidylinositol 3-phosphate in EEs. Agonist stimulation of GPR84-Rluc8 leads to trafficking of the receptor to EEs, and ensuing increase of the donor concentration relative to the rGFP-FYVE acceptor anchored in the same cellular compartment, and thus results in an increase in BRET signal.
Plasmids—The cDNA clones for human GPR84 receptor, human Gαi2, Gβ1, and Gγ2 were obtained from the cDNA Resource Center (www.cdna.org). GFP10 (F64L, S147P, S202F and H231L variant of Aequorea victoria Green Fluorescent Protein) gBlocks gene fragments (Integrated DNA Technologies, IA) and linker were inserted in frame at the N-terminus of human Gγ2. Rluc8 (A55T, C124A, S130A, K136R, A143M, M185V, M253L, and S287L variant of the Renilla reniformis luciferase) gBlocks gene fragment was inserted with linkers in frame in between residues 91 and 92 of Gα2 or at the C-terminus of GPR84. The FYVE domain from human endofin (residues Q739 to K806) attached in frame at the C terminus of a humanized Renilla GFP (rGFP), were synthesized as gBlocks gene fragments.
Bioluminescence Resonance Energy Transfer (BRET) Measurement—HEK293 cells were transfected with GPR84-Rluc8 and rGFP-FYVE for the EEs trafficking biosensor or with GPR84, Gαi2-Rluc8, GFP10-Gγ2, and Gβ1 for the Gαi biosensor. The following day, transiently transfected cells were seeded in 96-well white clear bottom microplates coated with poly-D-lysine and left in culture for 24 hours. Cells were washed once with Tyrode's buffer (140 mmol/L NaCl, 1 mmol/L CaCl2, 2.7 mmol/L KCl, 0.49 mmol/L MgCl2, 0.37 mmol/L NaH2PO4, 5.6 mmol/L glucose, 12 mmol/L NaHCO3, and 25 mmol/L HEPES, pH 7.5) before performing assays in Tyrode's buffer. Test compounds were incubated with cells for 5 (Gui) or 15 (EEs) minutes at 37° C. before addition of 200 nmol/L of the GPR84 agonist ZQ-16 (2-(Hexylthio)-6-hydroxy-4(3H)-pyrimidinone) for 5 minutes at room temperature (Gui) or 30 minutes at 37° C. (EEs). The Rluc8 substrate coelenterazine 400A (Prolume, Lakeside, AZ) was added at a final concentration of 5 μmol/L and BRET readings were collected using an Infinite M1000 microplate reader (Tecan, Morrisville, NC). BRET^2 readings between Rluc8 and GFP10 or rGFP were collected by sequential integration of the signals detected in the 370 to 450 nm (Rluc8) and 510 to 540 nm (GFP10, rGFP) windows. The BRET signal was calculated as the ratio of light emitted by acceptor (GFP10, rGFP) over the light emitted by donor (Rluc8). The values were corrected to net BRET by subtracting the background BRET signal obtained in cells transfected with Rluc8 constructs alone. Ligand-promoted net BRET values were calculated by subtracting vehicle-induced net BRET from ligand-induced net BRET.

Structure (SMILES)	inhibition at 10 µM (human GPR84 receptor; HEK293, single concentration) [%]	also measured
O=c1nc(OC[C@@H]2COCCO2)cc2n1CCc1cc(C#CC3CC3)ccc1-2 [GLPG1205]		disease activity index score [1]: reduced; neutrophil infiltration [1]: reduced
Cc1c(NC(=O)c2cccc(C#CC3CC3)c2)nnn1CC1OCC2(CC2)CO1 [Compound I-64]	≤ 25	
Cc1ccc(C#CC2CC2)cc1/N=C(\OC(C)C)c1cn(CC2OCC3(CC3)CO2)nn1 [Compound I-87]	> 75	
Cc1c(NC(=O)c2ccc(C#CC3CC3)cc2)nnn1CC1OCC2(CC2)CO1 [Compound I-62]	≤ 25	
CN(C(=O)c1cn(CC2OCC3(CC3)CO2)nn1)c1ccc(C#CC2CC2)cc1Cl [Compound I-94]		IC50 (human GPR84 receptor): ≤ 0.3 µM; inhibition at 2 µM (human GPR84 receptor; HEK293, single concentration): > 75%
Cc1ccc(C#CC2CC2)cc1N(C)Cc1cn(CC2OCC3(CC3)CO2)nn1 [Compound I-12, N-((1-((5,7-dioxaspiro[2.5]octan-6-yl)methyl)-1H-1,2,3-triazol-4-yl)methyl)-5-(cyclopropylethynyl)-N,2-dimethylaniline]	25 to 50	
Cc1ccc(C#CC2CC2)cc1Nc1cn(CC(=O)N(C)C)nn1 [Compound I-6, 2-(4-((5-(cyclopropylethynyl)-2-methylphenyl)amino)-1H-1,2,3-triazol-1-yl)-N,N-dimethylacetamide]		inhibition at 2 µM (human GPR84 receptor; HEK293, single concentration): ≤ 25%
Cc1ccc(C#CC2CC2)cc1N(C)c1cn(CC(=O)N(C)C)nn1 [Compound I-7, 2-(4-((5-(cyclopropylethynyl)-2-methylphenyl)(methyl)amino)-1H-1,2,3-triazol-1-yl)-N,N-dimethylacetamide]	> 75	
Cc1cc(C#CC2CC2)ccc1N(C)C(=O)c1cnn(CC2OCC3(CC3)CO2)c1 [Compound I-105]	> 75	IC50 (human GPR84 receptor): 0.3 to 1 µM
O=C(c1cn(CC2OCC3(CC3)CO2)nn1)N(c1ccc(C#CC2CC2)cc1F)C1CC1 [Compound I-91]		IC50 (human GPR84 receptor): ≤ 0.3 µM; inhibition at 2 µM (human GPR84 receptor; HEK293, single concentration): > 75%
Cc1ccc(C#CC2CC2)cc1N(C)C(=O)c1ccc(=O)n(CC(=O)N(C)C)c1C [Compound I-3, N-(5-(cyclopropylethynyl)-2-methylphenyl)-1-(2-(dimethylamino)-2-oxoethyl)-N,2-dimethyl-6-oxo-1,6-dihydropyridine-3-carboxamide]	≤ 25	
Cc1ccc(C#CC2CC2)cc1N(C)C(=O)c1cn(CC(=O)N(C)C)nn1 [Compound I-13, N-(5-(cyclopropylethynyl)-2-methylphenyl)-1-(2-(dimethylamino)-2-oxoethyl)-N-methyl-1H-1,2,3-triazole-4-carboxamide]	25 to 50	
CN(C)c1ccc(C#CC2CC2)cc1N(C)C(=O)c1cn(CC2OCC3(CC3)CO2)nn1 [Compound I-26]	> 75	IC50 (human GPR84 receptor): 0.3 to 1 µM
Cc1cc(C#CC2CC2)c2c(c1)CCC2N(C)c1cn(CC2OCC3(CC3)CO2)nn1 (stereo not shown) [Compound I-81]		inhibition at 2 µM (human GPR84 receptor; HEK293, single concentration): ≤ 25%
O=C(Nc1c(F)cc(C#CC2CC2)cc1F)c1cn(CC2OCC3(CC3)CO2)nn1 [Compound I-42]	≤ 25	
Cc1ccccc1NC(=O)c1cn(CC2OCC3(CC3)CO2)nn1 [Compound I-30]	≤ 25	
Cc1cc(C#CC2CC2)ccc1CN(C)c1cn(CC2OCC3(CC3)CO2)nn1 [Compound I-22]	> 75	
Cc1ccc(C#CC2CC2)cc1N(C)S(=O)(=O)c1cn(CC2OCC3(CC3)CO2)nn1 [Compound I-55]	> 75	
O=C(c1cn(CC2OCC3(CC3)CO2)nn1)N1CCCc2c(C#CC3CC3)cccc21 [Compound I-28]	50 to 75	
CN(C(=O)c1cn(CC2OCC3(CC3)CO2)nn1)c1cc(C#CC2CC2)ccc1F [Compound I-31]	> 75	IC50 (human GPR84 receptor): 1 to 3 µM
Cc1cc(F)c(C#CC2CC2)cc1NC(=O)c1cn(CC2OCC3(CC3)CO2)nn1 [Compound I-101]	≤ 25	

Structure (SMILES)	inhibition at 10 µM (human GPR84 receptor; HEK293, single concentration) [%]	also measured
Cc1ccccc1N(C)C(=O)c1cn(CC2OCC3(CC3)CO2)nn1 [Compound I-33]	≤ 25	
Cc1ccc(C#CC2CC2)cc1N(C)C(=O)c1c(C)cc(OCC(=O)N(C)C)cc1C [Compound I-35]	25 to 50	
CN(C(=O)c1cn(CC2OCC3(CC3)CO2)nn1)c1cc(C#CC2CC2)ccc1Br [Compound I-44]	> 75	IC50 (human GPR84 receptor): 0.3 to 1 µM
Cc1cc(C#CC2CC2)ccc1N(C)Cc1cn(CC2OCC3(CC3)CO2)nn1 [Compound I-40]	> 75	
O=C(c1cn(CC2OCC3(CC3)CO2)nn1)N(c1cc(C#CC2CC2)ccc1Br)C1CC1 [Compound I-92]		IC50 (human GPR84 receptor): 0.3 to 1 µM; inhibition at 2 µM (human GPR84 receptor; HEK293, single concentration): > 75%
Cc1ccc(C#CC2CC2)cc1C(=O)Nc1cn(CC2OCC3(CC3)CO2)nn1 [Compound I-9, N-(1-((5,7-dioxaspiro[2.5]octan-6-yl)methyl)-1H-1,2,3-triazol-4-yl)-5-(cyclopropylethynyl)-2-methylbenzamide]		inhibition at 6.7 µM (human GPR84 receptor; HEK293, single concentration, code E = 6.7 μM): ≤ 25%
Cc1cc(C#CC2CC2)ccc1N(C)S(=O)(=O)c1cn(CC2OCC3(CC3)CO2)nn1 [Compound I-56]	> 75	
Cc1cc(C#CC2CC2)ccc1NCc1cn(CC2OCC3(CC3)CO2)nn1 [Compound I-39]	25 to 50	
Cc1cc(C#CC2CC2)ccc1C(=O)N(C)c1cn(CC2OCC3(CC3)CO2)nn1 [Compound I-19]	50 to 75	
CN(c1cn(CC2OCC3(CC3)CO2)nn1)c1cc(C#CC2CC2)ccc1Cl [Compound I-8, 1-((5,7-dioxaspiro[2.5]octan-6-yl)methyl)-N-(2-chloro-5-(cyclopropylethynyl)phenyl)-N-methyl-1H-1,2,3-triazol-4-amine]	> 75	
Cc1cc(C#CC2CC2)ccc1N(C)C1(c2cn(CC3OCC4(CC4)CO3)nn2)COC1 [Compound I-95]	> 75	
Cc1c(N(C)C(=O)c2cccc(C#CC3CC3)c2)nnn1CC1OCC2(CC2)CO1 [Compound I-63]	≤ 25	
CN(C(=O)c1cn(CC2OCC3(CC3)CO2)nn1)c1ccc(C#CC2CC2)cc1Br [Compound I-38]		IC50 (human GPR84 receptor): ≤ 0.3 µM; inhibition at 2 µM (human GPR84 receptor; HEK293, single concentration): > 75%
COc1cc(C#CC2CC2)cc(NC(=O)c2cn(CC3OCC4(CC4)CO3)nn2)c1 [Compound I-98]	≤ 25	
CCc1ccc(C#CC2CC2)cc1NC(=O)c1cn(CC2OCC3(CC3)CO2)nn1 [Compound I-103]	≤ 25	
Cc1cc(C#CC2CC2)cc(C)c1NC(=O)c1cn(CC2OCC3(CC3)CO2)nn1 [Compound I-41]	≤ 25	
COc1cc(C#CC2CC2)cc(N(C)C(=O)c2cn(CC3OCC4(CC4)CO3)nn2)c1 [Compound I-99]	25 to 50	
Cc1cc(C#CC2CC2)ccc1OC(=O)c1cn(CC2OCC3(CC3)CO2)nn1 [Compound I-46]	25 to 50	
Cc1ccc(C#CC2CC2)cc1N(C)C(=O)c1cn(CC2OCC3(CC3)CO2)nn1 [Compound I-17]		IC50 (human GPR84 receptor): ≤ 0.3 µM; inhibition at 2 µM (human GPR84 receptor; HEK293, single concentration): > 75%
O=C(c1cn(CC2OCC3(CC3)CO2)nn1)N(c1cc(C#CC2CC2)ccc1F)C1CC1 [Compound I-90]	> 75	IC50 (human GPR84 receptor): ≤ 0.3 µM
